Experimental data published in patent publication US10364270B2, “Eye-care peptide, its composition and method of using the same” (PRO SUNFUN BIOTECH RESEARCH AND DEVELOPMENT CO., LTD., priority 2017, dated 2019).
Peptide text beside a SMILES is read from it.

System: HCEC cells
Experiment: MTT assay, viability of HCEC cells
Type: cell-based, Human
Description: Human corneal epithelial cell line, HCEC, was cultured in complete KSF containing keratinocyte-serum free medium, 5 ng/ml human recombinant EGF, 0.05 mg/ml bovine pituitary extract, 0.005 mg/ml insulin and 500 ng/ml hydrocortisone under 5% CO2 at 37° C.
Cells (2×10^4) in 1 ml complete KSF were seeded in 12-well plates with or without Peptide NO. 12. Seventy microliters of 5 mg/ml 3-(4,5-dimethyl-2-thiazolyl)-2,5-diphenyl-2H-tetrazolium bromide solution (MTT; Sigma) was added to each well for the indicated times and incubated at 37° C. for 3 hours, after which 700 μl 10% SDS in 0.01 N HCl was added to dissolve the MTT formazan crystals. The resultant optical density was measured spectrophotometrically at dual wavelengths, 550 and 630 nm.

Compound: CC(C)C[C@H](NC(=O)[C@@H]1CCCN1C(=O)[C@H](CC(N)=O)NC(=O)[C@@H](N)CCCNC(=N)N)C(=O)N[C@@H](CCC(=O)O)C(=O)N[C@@H](CCC(=O)O)C(=O)N[C@H](C(=O)O)[C@@H](C)O [Peptide NO. 12, ArgAsnProLeuGluGluThr] (H-RNPLEET-OH; N-terminus and C-terminus assumed)
- viability of HCEC cells (24 hours, 5, 10, 25 and 50 μg/ml, FIG. 3): did not significantly affect viability of HCEC cells
- viability of HCEC cells (48 hours, 5, 10, 25 and 50 μg/ml, FIG. 4): did not significantly affect viability of HCEC cells
